Assay [1] has as its target human hematopoietic prostaglandin D2 synthase (Homo sapiens, UniProt O60760). Briefly: Inhibitory activity against spleen-type (hematopoietic) prostaglandin D2 synthase, [14C]PGH2 to PGD2, TLC. Type of assay: biochemical. The note with it: for inhibition at 10 µM / inhibition at 30 µM: read-out: Inhibitory Ratio of Prostaglandin D2 (PGD2) Synthase (%). Here is the method: A buffer solution of 100 mM Tris (hydroxymethyl)aminomethane/HCl buffer (pH8.0) containing glutathione (0.1 mM) and human hematopoietic prostaglandin D2 synthase (adequate quantity) was preincubated at 25° C. for 5 minutes in the presence or absence of a test compound, and then 14C labeled prostaglandin H2 ([14C]PGH2) (10 μM) was added, and the buffer solution was further incubated at 25° C. for one minute. A mixture of ether, methanol, and citric acid was added to the reaction mixture, and the ether layer was developed on silica gel thin-layer chromatography (TLC) (eluent=ether: methanol: acetic acid=90:2:1), and the PGD2 produced was measured by exposure to an imaging plate. The enzyme inhibitory rates of test compounds were calculated assuming the amount of production of PGD2 without the test compound being 100%.

Assay [2] concerns RBL-2H3, a rat basophilic leukemia cell to express hematopoietic prostaglandin D synthase. Briefly: Prostaglandin D2 production inhibition test using cells (A23187-induced, EIA). Type of assay: cell-based. The note with it: RBL-2H3 cells, A23187 2.5 μM; for inhibition at 10 µM: Rattus norvegicus, RBL-2H3, Drug Concentration 10 μM, read-out: Inhibitory Ratio of Prostaglandin D2 (PGD2) Production (%); for Inhibitory Ratio of Prostaglandin D2 (PGD2) Production (%): Drug Concentration 10 μM. The procedure:
RBL-2H3, a rat basophilic leukemia cell to express hematopoietic prostaglandin D synthase, was inoculated in a 24 well plate and incubated overnight. After replacement with a medium in the presence or absence of a test compound, preincubation was carried out at 37° C. for one hour. After washing of the cells with PBS(-), the medium was replaced with a Hepes buffer solution (pH7.4) in the presence or absence of the test compound, and incubation was continued at 37° C. for 15 minutes. Then, calcium ionophore (A23187) at a final concentration of 2.5 μM was added, and incubation was carried out at 37° C. for 15 minutes to induce the production of PGD2. The supernatant of the cells was collected, and the amount of PGD2 flowed out in the supernatant was measured by EIA kit by Cayman. The inhibitory ratio of the production of PGD2 by the test compound was calculated assuming the amount of PGD2 produced by A23187 in the absence of the test compound as being 100%.

The source of these data is US20060229324A1, “Quinazolin-4-one derivatives” (priority 2002, published 2006).

The structures appear in SMILES notation.

Chain of human hematopoietic prostaglandin D2 synthase (O60760 whole entry): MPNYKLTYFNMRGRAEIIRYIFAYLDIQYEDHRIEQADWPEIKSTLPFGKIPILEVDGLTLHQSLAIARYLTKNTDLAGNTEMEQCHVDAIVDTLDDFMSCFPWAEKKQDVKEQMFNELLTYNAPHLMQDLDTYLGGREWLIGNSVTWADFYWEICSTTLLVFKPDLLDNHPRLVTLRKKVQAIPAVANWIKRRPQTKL

For `Cc1nn(-c2ccccc2)c(O)c1/C=N/n1c(C)nc2ccccc2c1=O` [Compound 1, 3-[(5-hydroxy-3-methyl-1-phenylpyrazol-4-yl)methylidene]-amino-2-methyl-3,4-dihydroquinazolin-4-one], the inhibition at 10 µM in assay [1] (Drug Concentration 10 μM) amounted to 50%; in assay [2] it was 26%. For the same molecule, the inhibition at 30 µM in assay [1] (Drug Concentration 30 μM) was found to be 76%.

Consider `CCOc1c(/C=N/n2c(C)nc3ccccc3c2=O)c(C)nn1-c1ccccc1` [Compound 3, 3-[(5-ethoxy-3-methyl-1-phenylpyrazol-4-yl)methylidene]amino-2-methyl-3,4-dihydroquinazolin-4-one], for which the figures for the inhibition at 10 µM in assay [1] (Drug Concentration 10 μM) and in assay [2] were 13% and 21%, respectively.

As for `Cc1nc2ccccc2c(=O)n1/N=C/c1c(C(F)(F)F)nn(-c2ccccc2)c1O` [Compound 7, 3-[(5-hydroxy-1-phenyl-3-(trifluoromethyl)pyrazol-4-yl)-methylidene]amino-2-methyl-3,4-dihydroquinazolin-4-one], the inhibition at 10 µM in assay [1] (Drug Concentration 10 μM) worked out at 96%; in assay [2] it was 50%. Further, the inhibition at 30 µM in assay [1] (Drug Concentration 30 μM) stood at 105%.

Consider `Cc1nn(-c2ccc(Cl)cc2)c(O)c1C=Nn1c(C)nc2ccccc2c1=O` [Compound 17, 3-{[1-(4-chlorophenyl)-3-methyl-5-hydroxypyrazol-4-yl]methylidene}amino-2-methyl-3,4-dihydroquinazolin-4-one], for which the results for the inhibition at 10 µM in assay [1] (Drug Concentration 10 μM) and in assay [2] were 29% and 21%, respectively.

With `Cc1nn(-c2ccc([N+](=O)[O-])cc2)c(O)c1C=Nn1c(C)nc2ccccc2c1=O` [Compound 20, 3-{[3-methyl-1-(4-nitrophenyl)-5-hydroxypyrazol-4-yl]-methylidene}amino-2-methyl-3,4-dihydroquinazolin-4-one], the inhibition at 10 µM in assay [1] (Drug Concentration 10 μM) was determined as 37%; in assay [2], 15%. In assay [1] (Drug Concentration 30 μM), the inhibition at 30 µM stood at 83%.

In the case of `Cc1nn(-c2ccccc2)c(O)c1/C=N/n1c(-c2ccccc2)nc2ccccc2c1=O` [Compound 24, 3-[(5-hydroxy-3-methyl-1-phenylpyrazol-4-yl)methylidene]-amino-2-phenyl-3,4-dihydroquinazolin-4-one], in assay [2], the inhibition at 10 µM came out at 59%.

Consider `Cc1nn(-c2ccccc2)c(O)c1/C=N/n1c(C(C)(C)C)nc2ccccc2c1=O` [Compound 25, 2-tert-butyl-3-[(5-hydroxy-3-methyl-1-phenylpyrazol-4-yl)methylidene]amino-3,4-dihydroquinazolin-4-one], for which the inhibition at 10 µM in assay [2] was 47%.

With `COc1ccc(-c2nc3ccccc3c(=O)n2N=Cc2c(C)nn(-c3ccccc3)c2O)cc1` [Compound 30, 3-[(5-hydroxy-3-methyl-1-phenylpyrazol-4-yl)methylidene]-amino-2-(4-methoxyphenyl)-3,4-dihydroquinazolin-4-one], the results for the “Inhibitory Ratio of Prostaglandin D2 (PGD2) Synthase (%)” value in assay [1] (Drug Concentration 10 μM) and in assay [1] (Drug Concentration 30 μM) were 51% and 71%, respectively. Further, in assay [2], the “Inhibitory Ratio of Prostaglandin D2 (PGD2) Production (%)” value (from here on “Inhibitory Ratio … (PGD2) Production (%)”) is listed as 28%.

Regarding `Cc1nn(-c2ccccc2)c(O)c1/C=N/n1c(C)nc2ccc(Br)cc2c1=O` [Compound 37, 6-bromo-3-[(5-hydroxy-3-methyl-1-phenylpyrazol-4-yl)-methylidene]amino-2-methyl-3,4-dihydroquinazolin-4-one], the inhibition at 10 µM stood at 15% in assay [1] (Drug Concentration 10 μM) and 32% in assay [2]. For the same molecule, in assay [1] (Drug Concentration 30 μM), the inhibition at 30 µM was 56%.

As for `Cc1nn(-c2ccccc2)c(O)c1C=NN1C(=O)c2ccccc2NC1CO` (stereo not shown) [Compound 39, 3-[(5-hydroxy-3-methyl-1-phenylpyrazol-4-yl)methylidene]-amino-2-hydroxymethyl-1,2,3,4-tetrahydroquinazolin-4-one], the “Inhibitory Ratio of Prostaglandin D2 (PGD2) Synthase (%)” value was found to be 77% in assay [1] (Drug Concentration 10 μM) and 46% in assay [1] (Drug Concentration 30 μM). In addition, in assay [2], the “Inhibitory Ratio … (PGD2) Production (%)” value was 70%.

Turning to `Cc1nn(-c2ccccc2)c(O)c1C=NN1C(=O)c2ccccc2NC1CO` (stereo not shown) [Compound 40, 3-[(5-hydroxy-3-methyl-1-phenylpyrazol-4-yl)-methylidene]amino-2-hydroxymethyl-1,2,3,4-tetrahydroquinazolin-4-one], the inhibition at 10 µM in assay [2] amounted to 74%.

As for `Cc1nn(-c2ccccc2)c(O)c1C=NN1C(=O)c2ccccc2NC1CO` (stereo not shown) [Compound 41, 3-[(5-hydroxy-3-methyl-1-phenylpyrazol-4-yl)-methylidene]amino-2-hydroxymethyl-1,2,3,4-tetrahydroquinazolin-4-one], in assay [2], the “Inhibitory Ratio … (PGD2) Production (%)” value worked out at 80%.

On to `Cc1nc2ccccc2c(=O)n1N=Cc1c(C23CC4CC(CC(C4)C2)C3)nn(-c2ccccc2)c1O` [Compound 44], for which the “Inhibitory Ratio … (PGD2) Production (%)” value in assay [2] stood at 100%.

As for `Cc1nc2ccccc2c(=O)n1N=Cc1c(-c2ccc(C(C)(C)C)cc2)nn(-c2ccccc2)c1O` [Compound 45], the “Inhibitory Ratio … (PGD2) Production (%)” value in assay [2] is on record as 100%.
